Experiment [1] concerns the target 5-hydroxytryptamine receptor 1D (Homo sapiens, UniProt P28221).
The target in experiment [2] is 5-hydroxytryptamine receptor 1B (Homo sapiens, UniProt P28222).
Experiment [3] addresses T1, 5-hydroxytryptamine receptor 1A (Homo sapiens, UniProt P08908).
T1 sequence (P08908 whole entry): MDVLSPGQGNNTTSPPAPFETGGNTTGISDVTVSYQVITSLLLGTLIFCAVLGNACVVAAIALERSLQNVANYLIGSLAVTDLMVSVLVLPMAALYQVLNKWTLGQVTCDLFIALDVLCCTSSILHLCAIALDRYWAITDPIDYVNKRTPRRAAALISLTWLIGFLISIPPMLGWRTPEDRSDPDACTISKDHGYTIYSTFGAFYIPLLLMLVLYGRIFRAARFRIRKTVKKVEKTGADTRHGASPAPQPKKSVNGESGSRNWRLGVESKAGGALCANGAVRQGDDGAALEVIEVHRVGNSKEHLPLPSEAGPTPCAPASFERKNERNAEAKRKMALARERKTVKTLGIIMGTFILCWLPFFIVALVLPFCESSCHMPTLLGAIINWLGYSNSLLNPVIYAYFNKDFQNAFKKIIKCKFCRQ

The target in experiment [4] is T2, Alpha-1A adrenergic receptor (Rattus norvegicus, UniProt P43140).
T2 sequence (P43140 whole entry): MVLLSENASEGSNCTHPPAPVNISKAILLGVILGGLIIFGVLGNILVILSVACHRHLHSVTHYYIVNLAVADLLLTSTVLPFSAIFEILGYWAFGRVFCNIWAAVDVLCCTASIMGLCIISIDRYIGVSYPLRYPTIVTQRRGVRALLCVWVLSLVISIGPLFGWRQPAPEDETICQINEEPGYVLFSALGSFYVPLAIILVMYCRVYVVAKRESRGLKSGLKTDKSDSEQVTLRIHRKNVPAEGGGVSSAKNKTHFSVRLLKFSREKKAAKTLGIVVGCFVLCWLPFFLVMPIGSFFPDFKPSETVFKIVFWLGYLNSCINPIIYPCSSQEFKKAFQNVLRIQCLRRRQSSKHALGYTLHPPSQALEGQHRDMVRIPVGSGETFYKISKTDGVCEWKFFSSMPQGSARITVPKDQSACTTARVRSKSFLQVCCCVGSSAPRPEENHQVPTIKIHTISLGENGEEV

Experiment [5] addresses T3, Alpha-2A adrenergic receptor (Homo sapiens, UniProt P08913).
T3 sequence (P08913 whole entry): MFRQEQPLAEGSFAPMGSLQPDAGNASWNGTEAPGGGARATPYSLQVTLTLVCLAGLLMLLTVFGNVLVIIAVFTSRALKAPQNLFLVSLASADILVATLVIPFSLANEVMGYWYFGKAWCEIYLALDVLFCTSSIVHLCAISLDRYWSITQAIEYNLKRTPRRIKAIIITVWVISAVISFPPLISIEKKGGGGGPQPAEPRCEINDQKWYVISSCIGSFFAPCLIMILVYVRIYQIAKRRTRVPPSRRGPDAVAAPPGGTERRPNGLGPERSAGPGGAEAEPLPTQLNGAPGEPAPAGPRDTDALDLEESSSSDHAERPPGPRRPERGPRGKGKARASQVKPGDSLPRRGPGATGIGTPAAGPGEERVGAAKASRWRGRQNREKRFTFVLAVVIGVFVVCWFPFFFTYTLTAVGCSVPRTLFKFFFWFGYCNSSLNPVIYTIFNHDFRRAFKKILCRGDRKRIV

For experiment [6], the target named is T4, Alpha-2C adrenergic receptor (Rattus norvegicus, UniProt P22086).
T4 sequence (P22086 whole entry): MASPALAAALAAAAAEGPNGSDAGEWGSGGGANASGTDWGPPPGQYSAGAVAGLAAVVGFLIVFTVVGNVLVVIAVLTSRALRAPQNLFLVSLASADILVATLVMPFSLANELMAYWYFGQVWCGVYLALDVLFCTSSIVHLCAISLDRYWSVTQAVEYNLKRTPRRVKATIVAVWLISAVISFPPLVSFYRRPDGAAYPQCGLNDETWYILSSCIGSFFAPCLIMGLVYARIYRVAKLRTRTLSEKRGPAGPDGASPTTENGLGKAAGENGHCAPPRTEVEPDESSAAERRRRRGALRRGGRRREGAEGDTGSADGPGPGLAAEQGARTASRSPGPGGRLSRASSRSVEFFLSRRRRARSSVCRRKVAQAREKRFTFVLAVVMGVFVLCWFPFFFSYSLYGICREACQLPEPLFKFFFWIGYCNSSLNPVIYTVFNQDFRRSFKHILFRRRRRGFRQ

The target of experiment [7] is Sodium-dependent dopamine transporter (Rattus norvegicus, UniProt P23977).
Chain of Sodium-dependent dopamine transporter (Rattus norvegicus, UniProt P23977) (P23977 whole entry): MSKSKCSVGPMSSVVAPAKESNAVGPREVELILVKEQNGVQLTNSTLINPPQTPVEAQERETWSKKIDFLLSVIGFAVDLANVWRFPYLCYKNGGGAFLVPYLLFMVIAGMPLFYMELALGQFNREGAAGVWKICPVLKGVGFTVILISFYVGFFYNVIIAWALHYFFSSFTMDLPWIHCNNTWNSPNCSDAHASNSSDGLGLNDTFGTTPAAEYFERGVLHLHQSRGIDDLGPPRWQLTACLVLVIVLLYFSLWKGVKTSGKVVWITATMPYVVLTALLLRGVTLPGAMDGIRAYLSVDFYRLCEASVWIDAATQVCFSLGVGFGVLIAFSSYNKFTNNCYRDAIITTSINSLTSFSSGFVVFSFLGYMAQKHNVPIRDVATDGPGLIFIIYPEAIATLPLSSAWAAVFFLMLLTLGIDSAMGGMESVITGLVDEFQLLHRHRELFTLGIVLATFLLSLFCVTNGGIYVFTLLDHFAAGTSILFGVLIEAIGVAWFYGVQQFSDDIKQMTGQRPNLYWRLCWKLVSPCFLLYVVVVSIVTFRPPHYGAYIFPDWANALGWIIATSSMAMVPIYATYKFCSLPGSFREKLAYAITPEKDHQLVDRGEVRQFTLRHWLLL
The target of experiment [8] is T5, Alpha-1A adrenergic receptor (Homo sapiens, UniProt P35348).
T5 sequence (P35348 whole entry): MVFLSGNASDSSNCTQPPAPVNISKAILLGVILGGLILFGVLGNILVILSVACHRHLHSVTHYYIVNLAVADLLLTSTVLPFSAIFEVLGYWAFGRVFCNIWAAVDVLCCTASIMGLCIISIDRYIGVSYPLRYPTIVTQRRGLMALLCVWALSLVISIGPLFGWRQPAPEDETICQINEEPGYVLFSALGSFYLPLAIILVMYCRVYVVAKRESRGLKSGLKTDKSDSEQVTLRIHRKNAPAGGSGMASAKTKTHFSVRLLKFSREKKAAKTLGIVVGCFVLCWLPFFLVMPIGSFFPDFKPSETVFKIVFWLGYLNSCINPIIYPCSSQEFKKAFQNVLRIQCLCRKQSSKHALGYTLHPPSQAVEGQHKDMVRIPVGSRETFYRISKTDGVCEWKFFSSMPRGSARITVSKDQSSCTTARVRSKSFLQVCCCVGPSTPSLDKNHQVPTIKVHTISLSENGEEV

Experiment [9] concerns the target T6, 5-hydroxytryptamine receptor 2C (Homo sapiens, UniProt P28335).
T6 sequence (P28335 whole entry): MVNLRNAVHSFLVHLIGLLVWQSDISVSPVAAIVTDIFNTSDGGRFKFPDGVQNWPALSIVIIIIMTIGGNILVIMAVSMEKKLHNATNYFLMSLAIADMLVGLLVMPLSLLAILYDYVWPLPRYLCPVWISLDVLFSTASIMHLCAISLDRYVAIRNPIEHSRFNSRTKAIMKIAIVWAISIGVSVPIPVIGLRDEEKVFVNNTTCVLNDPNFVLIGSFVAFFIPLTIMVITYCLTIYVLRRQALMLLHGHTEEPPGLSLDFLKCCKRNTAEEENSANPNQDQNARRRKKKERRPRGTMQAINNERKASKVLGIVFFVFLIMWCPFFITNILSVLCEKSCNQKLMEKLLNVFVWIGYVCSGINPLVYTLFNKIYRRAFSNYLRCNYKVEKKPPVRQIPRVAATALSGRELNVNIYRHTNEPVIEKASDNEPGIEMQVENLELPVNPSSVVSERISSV

The target of another experiment is D(2) dopamine receptor (Homo sapiens, UniProt P14416).
Chain of D(2) dopamine receptor (P14416 whole entry): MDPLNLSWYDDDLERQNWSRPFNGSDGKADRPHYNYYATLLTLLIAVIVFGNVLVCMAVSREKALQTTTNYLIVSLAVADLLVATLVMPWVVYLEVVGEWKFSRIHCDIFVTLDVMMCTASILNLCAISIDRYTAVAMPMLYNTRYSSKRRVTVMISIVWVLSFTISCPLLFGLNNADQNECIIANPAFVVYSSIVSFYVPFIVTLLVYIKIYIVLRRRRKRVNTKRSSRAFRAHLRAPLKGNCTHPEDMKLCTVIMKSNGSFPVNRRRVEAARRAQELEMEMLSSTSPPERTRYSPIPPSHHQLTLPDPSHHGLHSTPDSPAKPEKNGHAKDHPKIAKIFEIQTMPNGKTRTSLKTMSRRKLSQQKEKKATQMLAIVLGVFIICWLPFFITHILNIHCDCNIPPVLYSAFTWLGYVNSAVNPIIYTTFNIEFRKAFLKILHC
Experiment [10] has as its target Sodium-dependent dopamine transporter (Homo sapiens, UniProt Q01959).
Experiment [11] deals with Sodium-dependent noradrenaline transporter (Homo sapiens, UniProt P23975).
Chain of Sodium-dependent noradrenaline transporter (P23975 whole entry): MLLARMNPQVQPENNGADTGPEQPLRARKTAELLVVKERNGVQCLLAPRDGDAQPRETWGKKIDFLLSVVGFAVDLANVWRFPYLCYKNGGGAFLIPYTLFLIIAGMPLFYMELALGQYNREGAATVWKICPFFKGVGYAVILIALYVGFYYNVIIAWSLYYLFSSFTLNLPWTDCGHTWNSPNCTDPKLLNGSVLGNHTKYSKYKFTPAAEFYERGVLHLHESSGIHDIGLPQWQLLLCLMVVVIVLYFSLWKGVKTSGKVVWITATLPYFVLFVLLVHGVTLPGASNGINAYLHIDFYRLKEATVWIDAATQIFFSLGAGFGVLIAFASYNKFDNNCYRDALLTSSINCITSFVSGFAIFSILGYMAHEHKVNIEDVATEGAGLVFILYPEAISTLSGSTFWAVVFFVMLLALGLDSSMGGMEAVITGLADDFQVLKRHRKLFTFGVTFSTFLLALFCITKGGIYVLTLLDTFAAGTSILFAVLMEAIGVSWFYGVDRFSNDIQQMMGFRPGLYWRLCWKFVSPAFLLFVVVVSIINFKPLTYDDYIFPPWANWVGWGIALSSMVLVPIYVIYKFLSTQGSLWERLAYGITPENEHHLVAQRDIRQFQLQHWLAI
The target in experiment [12] is Norepinephrine transporter (Rattus norvegicus, UniProt Q9JIA2).
For experiment [13], the target named is Sodium-dependent serotonin transporter (Rattus norvegicus, UniProt P31652).
Chain of Sodium-dependent serotonin transporter (P31652 whole entry): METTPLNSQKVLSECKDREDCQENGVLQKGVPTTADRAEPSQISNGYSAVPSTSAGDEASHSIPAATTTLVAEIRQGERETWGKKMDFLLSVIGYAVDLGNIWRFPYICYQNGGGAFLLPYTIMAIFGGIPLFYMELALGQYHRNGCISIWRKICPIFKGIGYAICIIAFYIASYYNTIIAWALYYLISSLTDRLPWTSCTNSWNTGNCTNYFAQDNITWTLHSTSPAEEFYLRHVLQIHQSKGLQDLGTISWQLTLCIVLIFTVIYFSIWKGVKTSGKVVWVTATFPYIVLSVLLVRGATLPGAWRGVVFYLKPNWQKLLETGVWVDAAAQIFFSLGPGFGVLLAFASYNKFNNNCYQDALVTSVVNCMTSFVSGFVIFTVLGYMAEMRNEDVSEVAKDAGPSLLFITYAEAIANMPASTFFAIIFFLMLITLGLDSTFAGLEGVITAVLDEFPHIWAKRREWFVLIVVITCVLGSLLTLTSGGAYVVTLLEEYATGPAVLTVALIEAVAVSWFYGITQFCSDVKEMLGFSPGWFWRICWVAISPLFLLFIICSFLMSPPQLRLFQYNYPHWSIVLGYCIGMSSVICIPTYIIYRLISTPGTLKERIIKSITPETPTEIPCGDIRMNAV

Structures can show the parent of a compound that is named as a salt.

Chain of 5-hydroxytryptamine receptor 1B (P28222 whole entry): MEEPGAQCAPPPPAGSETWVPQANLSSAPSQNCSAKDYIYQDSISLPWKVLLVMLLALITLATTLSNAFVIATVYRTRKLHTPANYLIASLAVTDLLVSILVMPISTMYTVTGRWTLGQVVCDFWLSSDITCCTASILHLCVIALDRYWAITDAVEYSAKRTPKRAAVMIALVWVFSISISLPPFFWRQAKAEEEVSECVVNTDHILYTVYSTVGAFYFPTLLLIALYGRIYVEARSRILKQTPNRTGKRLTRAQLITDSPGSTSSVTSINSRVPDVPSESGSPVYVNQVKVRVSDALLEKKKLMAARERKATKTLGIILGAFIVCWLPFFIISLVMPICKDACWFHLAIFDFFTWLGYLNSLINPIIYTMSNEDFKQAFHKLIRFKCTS
Chain of 5-hydroxytryptamine receptor 1D (P28221 whole entry): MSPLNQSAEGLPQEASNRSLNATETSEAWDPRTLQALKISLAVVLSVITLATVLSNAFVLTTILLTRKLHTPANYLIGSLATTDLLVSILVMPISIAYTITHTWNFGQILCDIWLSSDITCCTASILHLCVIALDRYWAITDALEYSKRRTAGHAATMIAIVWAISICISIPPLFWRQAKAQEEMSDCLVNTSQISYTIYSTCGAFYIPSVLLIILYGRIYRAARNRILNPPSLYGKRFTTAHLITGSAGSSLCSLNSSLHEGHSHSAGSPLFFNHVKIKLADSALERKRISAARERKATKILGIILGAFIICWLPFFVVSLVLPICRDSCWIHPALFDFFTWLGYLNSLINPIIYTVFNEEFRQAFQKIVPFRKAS
Chain of Sodium-dependent dopamine transporter (Homo sapiens, UniProt Q01959) (Q01959 whole entry): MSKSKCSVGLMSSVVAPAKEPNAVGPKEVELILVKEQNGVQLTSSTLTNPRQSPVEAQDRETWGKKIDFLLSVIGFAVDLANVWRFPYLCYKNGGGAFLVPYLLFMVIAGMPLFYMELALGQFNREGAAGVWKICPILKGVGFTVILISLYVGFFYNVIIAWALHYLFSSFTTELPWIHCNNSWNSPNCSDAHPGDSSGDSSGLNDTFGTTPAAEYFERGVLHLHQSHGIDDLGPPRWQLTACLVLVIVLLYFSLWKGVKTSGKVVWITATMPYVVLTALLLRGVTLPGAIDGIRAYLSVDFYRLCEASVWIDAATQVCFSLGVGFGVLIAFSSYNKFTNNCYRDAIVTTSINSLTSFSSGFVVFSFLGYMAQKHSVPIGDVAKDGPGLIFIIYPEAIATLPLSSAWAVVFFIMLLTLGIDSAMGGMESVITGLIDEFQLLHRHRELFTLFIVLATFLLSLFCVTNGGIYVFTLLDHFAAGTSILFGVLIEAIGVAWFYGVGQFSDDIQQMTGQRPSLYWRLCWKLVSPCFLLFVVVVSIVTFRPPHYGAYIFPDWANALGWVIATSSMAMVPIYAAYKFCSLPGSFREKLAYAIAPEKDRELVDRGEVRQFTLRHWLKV

Broadly, the Ki is the dissociation constant of the complex between target and ligand, obtained from inhibition or displacement. A lower Ki goes with a stronger hold on the target. For the compound `CN(C)CCCC1(c2ccc(F)cc2)OCc2cc(C#N)ccc21` (configuration not stated), the Ki in experiment [1], in [2], in experiment [3], in [4], in experiment [5] and in experiment [6] was above 10 µM in each case.

In the case of `CN(C)CCCN1c2ccccc2CCc2ccc(Cl)cc21` [CLOMIPRAMINE HYDROCHLORIDE], the Ki in experiment [1] is above 10 µM; in experiment [7] it was 1.23 µM; in experiment [8] it was 0.0032 µM; in experiment [9], 0.0646 µM; on D(2) dopamine receptor, 0.0776 µM; in experiment [2] it was above 10 µM. In addition, the Ki in [3] was above 10 µM; in experiment [5] it was 0.525 µM; in experiment [10], 3.02 µM; in experiment [6] it was above 10 µM.

As for `COc1ccc(C(CN(C)C)C2(O)CCCCC2)cc1` (configuration not stated) [NSC_62923], the Ki (in experiment [1]; in [8]; in experiment [9]; at D(2) dopamine receptor; in experiment [3]; in [5]) was above 10 µM each time. For the same compound, the Ki in experiment [6] was above 10 µM.

`COc1ccc2c(c1)C(CN(C)C)(C1(O)CCCCC1)C2` (configuration not stated) [S33005]: the Ki in [1] was above 10 µM; in [7], above 10 µM; in [8], above 10 µM; in experiment [9], above 10 µM; at D(2) dopamine receptor, above 10 µM; in experiment [11], 1.51 µM. Further, the Ki in [2] is above 10 µM; in experiment [12] it was 0.178 µM; in [3], above 10 µM; in experiment [13], 0.00195 µM; in experiment [4], above 10 µM; in experiment [5], above 10 µM. Moreover, the Ki in experiment [10] and in experiment [6] was above 10 µM each time.

(Values after BindingDB's records for PubMed 11454918.)
